The nature of series [1]: Single-dose plasma pharmacokinetics of raltitrexed in cancer patients (radioimmunoassay, three-compartment model). The class given is in vivo, human. As for the experimental part: British Journal of Cancer (1 998) 78(9). 1188-1193 C 1998 Cancer Research Campaign Effects of impaired renal function on the pharmacokinetics of raltitrexed (Tomudex ZDI 694) I Judson', T Maughan2, P Beale', J Primrose3, P Hoskin4, J HanweIll, C Berry1, M Walker5 and F Sutcliffe5 lInstitute of Cancer Research. Sutton, Surrey SM2 5NG, UK; Welindre Hospital, Whitchurch. Cardiff CF4, UK; 3Souftampton General Hospital, Southampton S09 4XY. UK: 'Mount Vernon Hospital, Middlesex HA6 2RN. UK; 5Zeneca Pharmaceutcals Macclesfield. Cheshire SK10 4TG. UK Summary This open-label, non-randomized, parallel-group trial investigated the pharmacokinetics of raltitrexed (Tomudex, formerly ZD1 694) after a single intravenous dose of 3.0 mg m-2, comparing eight cancer patients with mild to moderate renal impairment (creatinine clearance 25-65 ml min-') with eight cancer patients with normal renal function (creatinine clearance >65 ml min-'). The primary end points were area under the plasma raltitrexed concentration-vime curve from the start of the infusion to the last determined concentration (AUCo_) and AUC to infinity (AUCo); secondary end points were peak corncentrations of ralftitrexed (C,n,) and elimination half-life (t,>). The groups were compared statistically using analysis of covariance. The AUCs were greater for patients with renal impairment than for patients with normal renal function (2452.2 compared with 1247.3 ng h ml-' for AUCo._. (ratio 1.97; 95% Cl 1.36-2.84); 2961.5 compared with 1457.0 ng h ml-' for AUCo_ (ratio 2.03; 1.25-3.29). These differences were statistically significant (P = 0.002 and P = 0.008 for AUC, and AUCo_ respectively. Terminal half-life was longer for the renally impaired patients (271.2 compared with 143.3; P = 0.030). There was no significant statistical difference between the groups for C, (652.9 compared with 564.7 ng ml-' for patients with impaired and normal renal function respectively: ratio 1.16; 0.91-1.46; P=0.204). There was a clear relationship between raltfitrexed clearance and creatinine clearance. Adverse events, severe (WHO grade 3 or 4) toxicity and hospitalization due to adverse events were more frequent in the group with renal impairment. Therefore, a reduction in ralftitrexed dose and increased interval between doses is recommended for patients with mild to moderate renal impairment. Keywords: pharmacokinetics; thymidylate synthase; phase I trial; raltitrexed; renal impairment Raltitrexed (Tomudex. ZD1694: Zeneca Limited) is a cytotoxic agent w-hich acts by direct and specific inhibition of thymidydlate synthase. the enzyme catalysing a critical step in de novo DNA synthesis. i.e. the production of thymidine monophosphate from deoxvuridine monophosphate. Some clinically effective anti- cancer agents. such as 5-fluorouracil and methotrexate. act in part by inhibiting thymidylate synthase but also have effects on other enzyme pathways. xvhich may contribute to their anti-tumour activity and obserned toxicity profiles. Raltitrexed inhibits thymidylate synthase selectively in vitro (Jackman et al. 1991). […] The poly- glutamates are retained in cells and cause prolonged inhibition of th midv late synthase. which leads to DNA fragmentation and cell death. […] The mean apparent half-life of the terminal (gamma) phase (tl, ,) was 50-lOO h (Clarke et al. 1996). This prolonged t1, may represent hydrolysis of the polvalutamated Received 17 November 1997 Revised 4 Apnl 1998 Accepted 14 Apnl 1998 Correspondence to: IR Judson, CRC Centre for Cancer Therapeutics. The Institute of Cancer Research. Block E. 15 Cotswold Road. Belmont. Sutton. Surrey SM2 5NG. UK forms and release of raltitrexed from tissues into the circulation. and allow s the druc to be administered as a single dose once ev er 3 weeks. In the phase I trial. a dose and schedule of 3.0mg m-' every 3 weeks was identified as suitable for phase H inxvestigation. […]

Series [2] is described as follows: Safety: adverse events and WHO-graded toxicity in cancer patients. The class given is in vivo. As for the experimental part:
British Journal of Cancer (1 998) 78(9). 1188-1193 C 1998 Cancer Research Campaign Effects of impaired renal function on the pharmacokinetics of raltitrexed (Tomudex ZDI 694) I Judson', T Maughan2, P Beale', J Primrose3, P Hoskin4, J HanweIll, C Berry1, M Walker5 and F Sutcliffe5 lInstitute of Cancer Research. Sutton, Surrey SM2 5NG, UK; Welindre Hospital, Whitchurch. Cardiff CF4, UK; 3Souftampton General Hospital, Southampton S09 4XY. UK: 'Mount Vernon Hospital, Middlesex HA6 2RN. UK; 5Zeneca Pharmaceutcals Macclesfield. Cheshire SK10 4TG. UK Summary This open-label, non-randomized, parallel-group trial investigated the pharmacokinetics of raltitrexed (Tomudex, formerly ZD1 694) after a single intravenous dose of 3.0 mg m-2, comparing eight cancer patients with mild to moderate renal impairment (creatinine clearance 25-65 ml min-') with eight cancer patients with normal renal function (creatinine clearance >65 ml min-'). The primary end points were area under the plasma raltitrexed concentration-vime curve from the start of the infusion to the last determined concentration (AUCo_) and AUC to infinity (AUCo); secondary end points were peak corncentrations of ralftitrexed (C,n,) and elimination half-life (t,>). The groups were compared statistically using analysis of covariance. The AUCs were greater for patients with renal impairment than for patients with normal renal function (2452.2 compared with 1247.3 ng h ml-' for AUCo._. (ratio 1.97; 95% Cl 1.36-2.84); 2961.5 compared with 1457.0 ng h ml-' for AUCo_ (ratio 2.03; 1.25-3.29). These differences were statistically significant (P = 0.002 and P = 0.008 for AUC, and AUCo_ respectively. Terminal half-life was longer for the renally impaired patients (271.2 compared with 143.3; P = 0.030). There was no significant statistical difference between the groups for C, (652.9 compared with 564.7 ng ml-' for patients with impaired and normal renal function respectively: ratio 1.16; 0.91-1.46; P=0.204). There was a clear relationship between raltfitrexed clearance and creatinine clearance. Adverse events, severe (WHO grade 3 or 4) toxicity and hospitalization due to adverse events were more frequent in the group with renal impairment. Therefore, a reduction in ralftitrexed dose and increased interval between doses is recommended for patients with mild to moderate renal impairment. Keywords: pharmacokinetics; thymidylate synthase; phase I trial; raltitrexed; renal impairment Raltitrexed (Tomudex. ZD1694: Zeneca Limited) is a cytotoxic agent w-hich acts by direct and specific inhibition of thymidydlate synthase. the enzyme catalysing a critical step in de novo DNA synthesis. i.e. the production of thymidine monophosphate from deoxvuridine monophosphate. […]

SMILES strings stand for the structures.

Results on one compound are retold here after publication PMC2062997, “Effects of impaired renal function on the pharmacokinetics of raltitrexed (Tomudex ZD1694)” (British Journal of Cancer, 1998).

With `Cc1nc2ccc(CN(C)c3ccc(C(=O)N[C@@H](CCC(=O)O)C(=O)O)s3)cc2c(=O)[nH]1` [raltitrexed], the “Cmax estimated ratio (impaired:normal renal function)” value in series [1] (95% CI 0.91-1.46, P = 0.204) was 1.16. The “AUC0-infinity estimated ratio (impaired:normal renal function)” value in series [1] (95% CI 1.25-3.29, P = 0.008) is on record as 2.03. Moreover, in series [1] (95% CI 1.36-2.84, P = 0.002), the “AUC0-tldc estimated ratio (impaired:normal renal function)” value was 1.97. The compound further registered an AUC in series [1] (both sexes, human, in vivo, AUC0-tldc, adjusted geometric least squares mean) of 2450 ng·h/mL. The compound also yielded a Cmax in series [1] (both sexes, human, in vivo, Cmax, adjusted geometric least squares mean) of 565 ng/mL. In addition, the Cmax in series [1] (both sexes, human, in vivo, iv, 3 mg, Cmax (mean; SD)) amounted to 676 ng/mL. In addition, the Tmax in series [1] (both sexes, human, in vivo, iv, tmax (median and range)) is 0.267 h. Also, in series [1] (both sexes, human, in vivo, t1/2 gamma (terminal half-life), adjusted least squares mean), the half-life was 271 h. In series [1] (both, human, in vivo), the “Cmax, adjusted geometric least squares mean” value is 652.9 ng/mL and the “t1/2 gamma (terminal half-life), adjusted least squares mean” value is 143.3 h. In addition, the “tmax (median and range)” value in series [1] (both, human, in vivo, iv) is recorded as 20 (10-30) min. Moreover, the “Cmax (mean; SD)” value in series [1] (human, in vivo, iv, 3 mg) is 567.1 ? 62.7 ng ml-1. In series [2] (both, human, in vivo), the “Pain, number of patients” value is 3 patients; the “WHO grade 3 or 4 drug-related toxicity” value was “No WHO grade 3 or 4 drug-related toxicity was reported”; the “WHO grade 3 or 4 toxicity” value was “grade 3 or 4 toxicity was observed”. In series [2] (renally impaired patient: Cr-EDTA clearance 28, calculated creatinine clearance 23.2 ml min-1), the Serious adverse events result is on record as “Death”.
